Laboratory results as given in US7138361B2, “Herbicidal heterocycles” (E. I. du Pont de Nemours and Company, priority 2000, dated 2006).

Assays:
Format in all cases: in vivo
Nightshade = assay: Test C preemergence; settings: Rate 250 g/ha, visual evaluation after 12 to 14 days
Sunflower = assay: Test C preemergence; settings: Rate 125 g/ha, scale 0 to 100, 0 no effect, 100 complete control
[1] = system: giant foxtail (Setaria faberii); assay: Test C preemergence
From the text: (§1) Seeds of plant species selected from bermudagrass (Cynodon dactylon), Surinam grass (Brachiaria decumbens), cocklebur (Xanthium strumarium), corn (Zea mays), crabgrass (Digitaria sanguinalis), woolly cupgrass (Eriochloa villosa), giant foxtail (Setaria faberii), goosegrass (Eleusine indica), johnsongrass (Sorghum halepense), kochia (Kochia scoparia), lambsquarters (Chenopodium album), morningglory (Ipomoea hederacea), yellow nutsedge (Cyperus esculentus), pigweed (Amaranthus retroflexus), common ragweed (Ambrosia elatior), soybean (Glycine max) and velvetleaf (Abutilon theophrasti) were planted and treated preemergence with test chemicals formulated in a non-phytotoxic solvent mixture which included a surfactant.
(§2) At the same time, plants selected from these crop and weed species and also winter barley (Hordeum vulgare), blackgrass (Alopecurus myosuroides), canary grass (Phalaris minor), chickweed (Stellaria media), downy brome (Bromus tectorum), green foxtail (Setaria viridis), Italian ryegrass (Lolium multiflorum), wheat (Triticum aestivum), wild oat (Avena fatua) and windgrass (Apera spica-venti) were treated with postemergence applications of some of the test chemicals formulated in the same manner. Plants ranged in height from 2 to 18 cm (1- to 4-leaf stage) for postemergence treatments. Plant species in the flooded paddy test consisted of rice (Oryza saliva), smallflower flatsedge (Cyperus difformis), duck salad (Heteranthera limosa) and barnyardgrass (Echinochloa crus-galli) grown to the 2-leaf stage for testing. Treated plants and controls were maintained in a greenhouse for 12 to 14 days, after which time all species were compared to controls and visually evaluated. Plant response ratings, summarized in Table C, are based on a scale of 0 to 100 where 0 is no effect and 100 is complete control. A dash (-) response means no test result.

soybean (Glycine max) = assay: Test C preemergence
From the text: as §1, §2

[2] = system: cocklebur (Xanthium strumarium); assay: Test C preemergence
From the text: as §1, §2

[3] = system: Surinam grass (Brachiaria decumbens); assay: Test C preemergence
From the text: as §1, §2

kochia (Kochia scoparia) = assay: Test C preemergence
From the text: as §1, §2

[4] = system: bermudagrass (Cynodon dactylon); assay: Test C preemergence
From the text: as §1, §2

[5] = system: crabgrass (Digitaria sanguinalis); assay: Test C preemergence
From the text: as §1, §2

[6] = system: pigweed (Amaranthus retroflexus); assay: Test C preemergence
From the text: as §1, §2

[7] = system: woolly cupgrass (Eriochloa villosa); assay: Test C preemergence
From the text: as §1, §2

[8] = system: giant foxtail (Setaria faberii); assay: Test B preemergence; settings: scale 0 to 100, 0 no effect, 100 complete control
Summary of the method: (§3)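 Greenhouse test: chemicals are formulated in a surfactant-containing non-phytotoxic solvent and applied either preemergence to planted seeds or postemergence to plants 2 to 18 cm tall. Response is rated visually versus controls after 13 to 15 days, 0 meaning no effect and 100 complete control.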

corn (Zea mays) = assay: Test B preemergence; settings: scale 0 to 100, 0 no effect, 100 complete control
Summary of the method: as §3

[9] = system: velvetleaf (Abutilon theophrasti); assay: Test B preemergence; settings: scale 0 to 100, 0 no effect, 100 complete control
Summary of the method: as §3

[10] = system: cocklebur (Xanthium strumarium); assay: Test B preemergence; settings: scale 0 to 100, 0 no effect, 100 complete control
Summary of the method: as §3

[11] = system: Surinam grass (Brachiaria decumbens); assay: Test B preemergence; settings: scale 0 to 100, 0 no effect, 100 complete control
Summary of the method: as §3

[12] = system: lambsquarters (Chenopodium album); assay: Test B preemergence; settings: scale 0 to 100, 0 no effect, 100 complete control
Summary of the method: as §3

[13] = system: crabgrass (Digitaria sanguinalis); assay: Test B preemergence; settings: scale 0 to 100, 0 no effect, 100 complete control
Summary of the method: as §3

rice (Oryza saliva) = assay: Test B preemergence; settings: scale 0 to 100, 0 no effect, 100 complete control
Summary of the method: as §3

[14] = system: barnyardgrass (Echinochloa crus-galli); assay: Test B preemergence; settings: scale 0 to 100, 0 no effect, 100 complete control
Summary of the method: as §3

[15] = system: morning glory (Ipomoea hederacea); assay: Test B preemergence; settings: scale 0 to 100, 0 no effect, 100 complete control
Summary of the method: as §3

[16] = system: pigweed (Amaranthus retroflexus); assay: Test B preemergence; settings: scale 0 to 100, 0 no effect, 100 complete control
Summary of the method: as §3

[17] = Rate 62 g/ha, scale 0 to 100, 0 no effect, 100 complete control
[18] = preemergence, Rate 31 g/ha, scale 0 to 100
[19] = preemergence, Rate 250 g/ha, visual evaluation after 12 to 14 days
[20] = preemergence, Rate 125 g/ha, scale 0 to 100, 0 no effect, 100 complete control

`CC(C)c1ccn(C2OCN(c3cccc(C(F)(F)F)c3)C2=O)n1` (stereo not drawn) [Compound 27] was tested, and the “Plant response rating (0 to 100), Nightshade” value (Nightshade) was 0, the “Plant response rating, Sunflower” value (Sunflower) was 20 and the “Plant response rating, Foxtail, Giant” value [1, 17] was 70. The “Plant response rating, Foxtail, Giant” value [1, 18] was 0, the “Plant response rating (0 to 100), Foxtail, Giant” value [1, 19] was 0 and the “Plant response rating, Foxtail, Giant” value [1, 20] was 100. For the same molecule, the “Plant response rating, Soybean” value (soybean (Glycine max); [17]) was 30, the “Plant response rating, Soybean” value (soybean (Glycine max); [18]) was 0 and the “Plant response rating (0 to 100), Soybean” value (soybean (Glycine max); [19]) was 50. For the same molecule, the “Plant response rating, Soybean” value (soybean (Glycine max); [20]) was 40, the “Plant response rating, Cocklebur” value [2, 17] was 0 and the “Plant response rating, Cocklebur” value [2, 18] was 0. For the same molecule, the “Plant response rating (0 to 100), Cocklebur” value [2, 19] was 0, the “Plant response rating, Cocklebur” value [2, 20] was 0 and the “Plant response rating, Surinam grass” value [3, 17] was 50. For the same molecule, the “Plant response rating, Surinam grass” value [3, 18] was 0, the “Plant response rating (0 to 100), Surinam grass” value [3, 19] was 80 and the “Plant response rating, Surinam grass” value [3, 20] was 50. For the same molecule, the “Plant response rating, Kochia” value (kochia (Kochia scoparia); [17]) was 100, the “Plant response rating, Kochia” value (kochia (Kochia scoparia); [18]) was 0 and the “Plant response rating (0 to 100), Kochia” value (kochia (Kochia scoparia); [19]) was 100. The “Plant response rating, Kochia” value (kochia (Kochia scoparia); [20]) was 100, the “Plant response rating, Bermudagrass” value [4, 17] was 90 and the “Plant response rating, Bermudagrass” value [4, 18] was 30. For the same molecule, the “Plant response rating (0 to 100 where 0 is no effect and 100 is complete control), Bermudagrass” value [4, 19] was 100, the “Plant response rating, Bermudagrass” value [4, 20] was 100 and the “Plant response rating, Crabgrass” value [5, 17] was 100. The “Plant response rating, Crabgrass” value [5, 18] was 90, the “Plant response rating (0 to 100), Crabgrass” value [5, 19] was 100 and the “Plant response rating, Crabgrass” value [5, 20] was 100. The “Plant response rating, Pigweed” value [6, 17] was 0, the “Plant response rating, Pigweed” value [6, 18] was 100 and the “Plant response rating (0 to 100), Pigweed” value [6, 19] was 100. The “Plant response rating, Pigweed” value [6, 20] was 100, the “Plant response rating, Cupgrass, Woolly” value [7, 17] was 50 and the “Plant response rating, Cupgrass, Woolly” value [7, 18] was 50. For the same molecule, the “Plant response rating (0 to 100), Cupgrass, Woolly” value [7, 19] was 100, the “Plant response rating, Cupgrass, Woolly” value [7, 20] was 80 and the “Plant response rating, Foxtail, Giant” value ([8]; Preemergence, Rate 500 g/ha) was 90. The “Plant response rating, Foxtail, Giant” value ([8]; preemergence, Rate 125 g/ha) was 0, the “Plant response rating, Corn” value (corn (Zea mays); Preemergence, Rate 500 g/ha) was 0 and the “Plant response rating, Corn” value (corn (Zea mays); preemergence, Rate 125 g/ha) was 0. The “Plant response rating, Velvetleaf” value ([9]; Preemergence, Rate 500 g/ha) was 0, the “Plant response rating, Velvetleaf” value ([9]; preemergence, Rate 125 g/ha) was 0 and the “Plant response rating, Cocklebur” value ([10]; Preemergence, Rate 500 g/ha) was 0. For the same molecule, the “Plant response rating, Cocklebur” value ([10]; preemergence, Rate 125 g/ha) was 0, the “Plant response rating, Surinam grass” value ([11]; Preemergence, Rate 500 g/ha) was 0 and the “Plant response rating, Surinam grass” value ([11]; preemergence, Rate 125 g/ha) was 0. The “Plant response rating, Lambsquarters” value ([12]; Preemergence, Rate 500 g/ha) was 100, the “Plant response rating, Lambsquarters” value ([12]; preemergence, Rate 125 g/ha) was 100 and the “Plant response rating, Crabgrass” value ([13]; Preemergence, Rate 500 g/ha) was 90. The “Plant response rating, Crabgrass” value ([13]; preemergence, Rate 125 g/ha) was 0, the “Plant response rating, Rice” value (rice (Oryza saliva); Preemergence, Rate 500 g/ha) was 40 and the “Plant response rating, Rice” value (rice (Oryza saliva); preemergence, Rate 125 g/ha) was 0. For the same molecule, the “Plant response rating, Barnyardgrass” value ([14]; Preemergence, Rate 500 g/ha) was 100, the “Plant response rating, Barnyardgrass” value ([14]; preemergence, Rate 125 g/ha) was 30 and the “Plant response rating, Morningglory” value ([15]; Preemergence, Rate 500 g/ha) was 0. The “Plant response rating, Morningglory” value ([15]; preemergence, Rate 125 g/ha) was 0, the “Plant response rating, Pigweed” value ([16]; Preemergence, Rate 500 g/ha) was 100 and the “Plant response rating, Pigweed” value ([16]; preemergence, Rate 125 g/ha) was 100.
